Laboratory results taken from patent publication US7879852B2, “Melanocortin receptor agonists” (LG Life Sciences Ltd., priority 2006, dated 2011).

What follows are molecules tested against T1, human melanocortin receptor 4 (MC4R) (Homo sapiens, UniProt P32245) (assay: Luciferase assay). Conditions: agonistic activity at MC4R (Table 18); patent does not state whether luciferase or cAMP assay.
T1 construct: expressed in transfected cells; grown with 200 ug/ml Geneticin
Assay type: cell-based
Method: Cell lines expressing human melanocortin receptor 4 (MC4R) were dissociated from tissue culture dishes by rinsing with Ca^++, Mg^++ free DPBS, treated with 1× Trypsin/EDTA solution for 1 min at 37° C., and resuspended with DMRM (GIBCO-BRL) supplemented with 10% FBS. The cells were counted and diluted with DMEM supplemented with 10% FBS and 200 ug/ml of Geneticin to […]. 90 ul of cell suspension was plated onto each well of 96-well black and clear bottom culture plates (Costar). After the incubation for 24 h in the atmosphere of 6% CO2 at 37° C., 10 ul of NDP-MSH and test compounds diluted in DMSO were added to each well. The final DMSO concentration was 1%. After 4 h of incubation in the atmosphere of 6% CO2 at 37° C., 50 ul of Bright-Glo (Promega) was added to each well. Luciferase activity was measured by using L-Max luminometer (Molecular Device). The amount of luciferase activity induced by treatment with NDP-MSH was defined as 100% to obtain the relative efficacy of test compounds. The EC0.5 MSH was defined as the concentration of test compounds that results in half maximal activity of NDP-MSH. The EC50 was defined as the concentration of test compound that results in half maximal activity of its own.

T1 sequence (P32245 whole entry): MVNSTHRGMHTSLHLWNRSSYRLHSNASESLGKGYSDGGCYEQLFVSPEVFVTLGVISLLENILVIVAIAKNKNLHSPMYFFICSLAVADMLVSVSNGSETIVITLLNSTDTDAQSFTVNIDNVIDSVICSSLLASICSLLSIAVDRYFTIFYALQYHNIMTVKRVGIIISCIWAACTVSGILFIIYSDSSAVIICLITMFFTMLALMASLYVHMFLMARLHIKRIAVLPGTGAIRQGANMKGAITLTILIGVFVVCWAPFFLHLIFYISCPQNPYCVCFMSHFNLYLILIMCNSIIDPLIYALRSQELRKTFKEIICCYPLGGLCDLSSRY

Row | EC50 | Molecule
1 | 66 nM | CCN(C)C(=O)[C@@H]1C[C@H](N(C(=O)C(C)(C)CS)C2CCC(C)(C)CC2)CN1C(=O)[C@@H]1CN(C(C)(C)C)C[C@H]1c1ccc(F)cc1F [Example C14, (4S)-1-{[(3S,4R)-1-tert-butyl-4-(2,4-difluorophenyl)pyrrolidine-3-yl]carbonyl}-4-[(4,4-dimethylcyclohexyl)(3-mercapto-2,2-dimethylpropanoyl)amino]-N-ethyl-N-methyl-L-prolineamide]
2 | 22 nM | COCC(C)(C)C(=O)N(C1CCC(F)(F)CC1)[C@H]1C[C@@H](C(=O)N(C)C)N(C(=O)[C@@H]2CN(C(C)(C)C)C[C@H]2c2ccc(Cl)cc2)C1 [Example C24]
3 | 47 nM | CN(C)C(=O)[C@@H]1C[C@H](N(C(=O)C(C)(C)C)c2ccc(F)cc2F)CN1C(=O)[C@@H]1CN(C(C)(C)C)C[C@H]1c1ccc(Cl)cc1 [Example D1, (4S)-1-{[(3S,4R)-1-tert-butyl-4-(4-chlorophenyl)pyrrolidine-3-yl]carbonyl}-4-[(2,4-difluorophenyl)(2,2-dimethylpropanoyl)amino]-N,N-dimethyl-L-prolineamide]
4 | 23 nM | CC1CCC(N(C(=O)c2ccoc2)C2CCN(C(=O)C3CNCC3c3ccc(Cl)cc3)C2)CC1 (centres unmarked) [Example E1-14]
5 | 21 nM | CC1CCC(N(C(=O)C2=CCOC2)C2CCN(C(=O)C3CNCC3c3ccc(Cl)cc3)C2)CC1 (centres unmarked) [Example E1-23]
6 | 7 nM | CC1(C)CCC(N(C(=O)C(C)(C)CO)[C@H]2CCN(C(=O)[C@@H]3CN(C(N)=O)C[C@H]3c3ccc(Cl)cc3)C2)CC1 [Example E2-2]
7 | 45 nM | CC1(C)CCC(N(C(=O)C(C)(C)C)[C@H]2CCN(C(=O)[C@@H]3CN(C(N)=O)C[C@H]3c3ccc(Cl)cc3)C2)CC1 [Example E2-3]
8 | 5 nM | CCN(C)C(=O)[C@@H]1C[C@H](N(C(=O)[C@@H]2CCCO2)C2CCC(C)(C)CC2)CN1C(=O)[C@@H]1CN(C2CCOCC2)C[C@H]1c1ccc(Cl)cc1 [Example E5-2, (4S)-1-{[(3S,4R)-4-(4-chlorophenyl)-1-(tetrahydro-2H-pyran-4-yl)pyrrolidine-3-yl]carbonyl}-4-{(4,4-dimethylcyclohexyl)[(2S)-tetrahydrofuran-2-ylcarbonyl]amino}-N-ethyl-N-methyl-L-prolineamide]
9 | 4 nM | CCNC(=N)N1C[C@@H](C(=O)N2CC[C@H](N(C(=O)C(C)C)[C@H]3CC[C@@H](C)CC3)C2)[C@H](c2ccc(Cl)cc2)C1 [Example E10, N-[(3S)-1-({(3S,4R)-4-(4-chlorophenyl)-1-[(ethylamino)(imino)methyl]pyrrolidine-3-yl}carbonyl)pyrrolidine-3-yl]2-methyl-N-(cis-4-methylcyclohexyl)propaneamide]

Row | Molecule | EC50
10 | (4S)-1-[(3S,4R)-1-tert-butyl-4-(4-chlorophenyl)pyrrolidine-3-yl]carbonyl)-4-{(4,4-dimethylcyclohexyl)[(2S)-tetrahydrofuran-2-ylcarbonyl]amino}-N,N-ethylmethyl-L-prolineamide [Example A2] | 16 nM
11 | S-(3-{[(3S,5S)-1-{[(3S,4R)-1-tert-butyl-4-(2,4-difluorophenyl)pyrrolidine-3-yl]carbonyl}-5-{[ethyl(methyl)amino]carbonyl}pyrrolidine-3-yl](4,4-dimethylcyclohexyl)amino}-2,2-dimethyl-3-oxopropyl)ethanethioate [Example C13] | 40 nM
